Measurements as given in ChEMBL document CHEMBL2331217, “Evolvosides C–E, flavonol-4'-O-triglycosides from evolvulus alsinoides and their anti-stress activity [corrected]” (2013).

Legend:
Assay type in all cases: functional
[1] = system: Rattus norvegicus; test: Anti-stress activity in Sprague-Dawley rat assessed as change in acute stress-induced plasma corticosterone level at 40 mg/kg, po qd for 3 days prior to acute stress induction measured after 150 mins by HPLC/UV analysis (reference value: 511.2 +/- 23.2 ng/ml)
[2] = system: Rattus norvegicus; test: Anti-stress activity in Sprague-Dawley rat assessed as change in acute stress-induced plasma creatine kinase level at 40 mg/kg, po qd for 3 days prior to acute stress induction measured after 150 mins (reference value: 1018 +/- 31.43 mg/dl)
[3] = system: Rattus norvegicus; test: Anti-stress activity in Sprague-Dawley rat assessed as change in acute stress-induced adrenal gland weight at 40 mg/kg, po qd for 3 days prior to acute stress induction measured after 150 mins (reference value: 10.2 +/- 0.84 mg/kg)
[4] = system: Rattus norvegicus; test: Anti-stress activity in Sprague-Dawley rat assessed as change in acute stress-induced plasma glucose level at 40 mg/kg, po qd for 3 days prior to acute stress induction measured after 150 mins (reference value: 154.7 +/- 4.38 mg/dl)

SMILES | Activity [1] | Activity [2] | Activity [3] | Activity [4]
COc1cc(OC)c2c(=O)c(O)c(-c3ccc(O[C@@H]4O[C@H](CO[C@@H]5O[C@@H](C)[C@H](O)[C@@H](O)[C@H]5O[C@@H]5O[C@H](CO)[C@@H](O)[C@H](O)[C@H]5O)[C@@H](O)[C@H](O)[C@H]4O)cc3)oc2c1 [EVOLVOSIDE E] | 252.6 ng/mL | 413.7 mg/dL | – | –
COc1cc(O)c2c(=O)c(O)c(-c3ccc(O[C@@H]4O[C@H](CO[C@@H]5O[C@@H](C)[C@H](O)[C@@H](O)[C@H]5O[C@@H]5O[C@H](CO)[C@@H](O)[C@H](O)[C@H]5O)[C@@H](O)[C@H](O)[C@H]4O)cc3)oc2c1 [EVOLVOSIDE D] | 241.7 ng/mL | 405.4 mg/dL | 8.23 mg/kg | 95.13 mg/dL
O=c1cc(-c2ccc(O)cc2)oc2c([C@@H]3O[C@H](CO)[C@@H](O)[C@H](O)[C@H]3O)c(O)cc(O)c12 | 439 ng/mL | 822 mg/dL | 9.78 mg/kg | 92.1 mg/dL
C[C@@H]1O[C@@H](OC[C@H]2O[C@@H](Oc3ccc(-c4oc5cc(O)cc(O)c5c(=O)c4O)cc3)[C@H](O)[C@@H](O)[C@@H]2O)[C@H](O[C@@H]2O[C@H](CO)[C@@H](O)[C@H](O)[C@H]2O)[C@H](O)[C@H]1O [EVOLVOSIDE C] | 233.3 ng/mL | 385.3 mg/dL | 7.11 mg/kg | 80.17 mg/dL
C[C@@H]1O[C@@H](OC[C@H]2O[C@@H](Oc3ccc(-c4oc5cc(O)cc(O)c5c(=O)c4O)cc3)[C@H](O)[C@@H](O)[C@@H]2O)[C@H](O)[C@H](O)[C@H]1O | 239.2 ng/mL | 521.4 mg/dL | 8.47 mg/kg | 105.13 mg/dL
O=c1c(O)c(-c2ccc(O[C@@H]3O[C@H](CO)[C@@H](O)[C@H](O)[C@H]3O[C@@H]3O[C@H](CO)[C@@H](O)[C@H](O)[C@H]3O)cc2)oc2cc(O)cc(O)c12 | 458.2 ng/mL | 1078 mg/dL | 10.91 mg/kg | 113.1 mg/dL
